This is an account of results in patent US12655460B2, “Rapid antimicrobial susceptibility testing by image analysis” (Beth Israel Deaconess Medical Center, Inc., priority 2019, dated 2026).

One assay concerns E. coli. Kind of assay: Rapid antimicrobial susceptibility testing (MIC) by flatbed-scanner imaging of doubling dilutions in a well plate, gentamicin. Format: cell-based. Further details: unit not given here. The note with it: 37° C. An excerpt: (§1) The dispensing technology may use well plate 205, which may be a standard 96-, 384-, or 1536-well microtiter plate. Well plate 205 contains doubling dilutions of antimicrobials. Any antimicrobials can be used. Antibiotics are mentioned as an example of an antimicrobial, but any antimicrobial or other treatment agent (e.g. antifungal, antiviral, anti-parasitic) can be used unless context clearly dictates otherwise. The doubling dilution series can be prepared at the time of use, or plates with doubling dilutions can be pre-made and stored with lyophilized antibiotics or with antibiotics in broth that are frozen and thawed before use. In embodiments, 50 μl of broth are added to wells in well plate 205 and desired two-fold dilutions of antibiotics are added to wells using inkjet printing technology 210 as described in WO 2017/218202 A1, the entire contents of which are incorporated by reference for all purposes. In other embodiments, antibiotics can be added either manually or with any of several suitable liquid handling devices. Positive blood culture broth is then added to the microtiter wells. The positive blood culture broth or dilutions of the positive blood culture broth can be added to the wells using any of several liquid handling devices or manually or through use of an inkjet printer 210 which we determined can quantitatively print out positive blood culture broth.
(§2) Typically positive blood-culture broth has organisms at 5×10^9 colony-forming units per mL. In our experiments, we determined that this could be diluted 5-fold in sterile water and 0.3% tween-20 and this dilution dispensed at 250 nl per well to create a starting inoculum of approximately 2.5×10^7 per mL in wells in a 384 well plate containing a volume of 10 μl. […]
We have made use of a CCD flatbed scanner to scan plates. In our example, the plates are incubated in a separate incubator and placed on a plate bed scanner at different time points for reading. Using a flatbed scanner, we have determined that accurate AST results can be obtained with incubation times of 1.5 hours or less. […]

Assay [1] in a line: Rapid antimicrobial susceptibility testing (MIC) by flatbed-scanner imaging of doubling dilutions in a well plate, cefepime. Format: cell-based.
Excerpt: as §1, with “In embodiments, 50 μl of broth are added to wells in well plate 205 and desired two-fold dilutions of antibiotics are added to wells using inkjet printing technology 210 as described in WO 2017/218202 A1, the entire contents of which are incorporated by reference for all purposes. In other embodiments, antibiotics can be added either manually or with any of several suitable liquid handling devices. Positive blood culture broth is then added to the microtiter wells.” left out
as §2

In brackets after ≈: the same amount, converted by molar mass.

For gentamicin, the MIC against E. coli (2 hours of incubation (graph 520)), in the assay on E. coli (3 hours of incubation (graph 530)) and with E. coli (4 hours of incubation (graph 540)) was 1.0 each time.
For the molecule `CO/N=C(\C(=O)N[C@@H]1C(=O)N2C(C(=O)[O-])=C(C[N+]3(C)CCCC3)CS[C@H]12)c1csc(N)n1` [cefepime], the MIC in assay [1] (3 hours of incubation (graph 630)) and in assay [1] (4 hours of incubation (graph 640)) was 31 µg/mL (≈ 64.5 µM) each time.
